This is an account of results in article PMC12567349, “Design and Optimization of Spiro-Isatin-Thiazolidinone Hybrids with Promising Anticancer Activity” (Pharmaceuticals, 2025).

The subject of one test is MDA-MB-231 cells. Nature of the test: MTT assay, 72 h, MDA-MB-231. It is filed as cell-based. The settings on record: Homo sapiens, mean ± SD. How it is done: (§1) The cytotoxic potential of the synthesized compounds was investigated using the MTT assay after 72 h incubation with a panel of human and murine cancer cell lines, including colorectal carcinoma (HCT116), estrogen receptor-positive breast adenocarcinoma (MCF-7), triple-negative breast adenocarcinoma (MDA-MB-231), epidermoid carcinoma (KB3-1), myeloid leukemia (K562), and glioblastoma (U373), and mouse breast carcinoma (4T1) cells. To assess the selectivity of the compounds, pseudo-normal cell lines—human keratinocytes (HaCaTs) and mouse fibroblasts (NIH3T3s)—were also tested under the same conditions.
(§2) Human breast adenocarcinoma cells of MCF-7 and MDA-MB-231 lines, human glioblastoma cells of U373 line, human chronic myelogenous leukemia cells of K562 line, human colorectal carcinoma cells of HCT116 line, and human epidermoid carcinoma cells of KB3-1 line were kindly donated by a Collection of the Institute for Cancer Research at Vienna Medical University (Vienna, Austria). Human keratinocytes of HaCaT line, murine breast carcinoma cells of 4T1 line, and murine fibroblasts of the NIH3T3 line were obtained from the Cell Collection of the R.E. Kavetsky Institute of Experimental Pathology, Oncology and Radiobiology of the National Academy of Sciences of Ukraine (Kyiv, Ukraine). MCF-7, MDA-MB-231, U373, K562, HaCaT, and NIH3T3 cells were cultured in DMEM medium (Sigma-Aldrich, Burlington, MA, USA) supplemented with 2 mM L-glutamine, 4500 mg/L glucose, and 1 mM sodium pyruvate. HCT116 and KB3-1 cells were maintained in RPMI-1640 medium supplemented with 2 mM L-glutamine (Sigma-Aldrich, USA). Both media were supplemented with 10% fetal bovine serum (Sigma-Aldrich, USA). All cell lines were incubated at 37 °C in a humidified atmosphere containing 5% CO2.
(§3) The substrate cells were seeded at a density of 5000 cells per 100 µL, while suspension K562 cells were seeded at 15,000 cells per 100 µL in 96-well plates and incubated overnight. Doxorubicin (Dox, Sigma-Aldrich, USA) was used as a reference drug. Studied substances were then added in 100 µL of culture medium, and the cells were further incubated for 72 h. Subsequently, 20 µL of MTT solution (5 mg/mL, Sigma-Aldrich, USA) was added to each well and incubated for 2–4 h. Formazan crystals were then solubilized by adding dimethyl sulfoxide (Sigma-Aldrich, USA). Absorbance was measured using a BioTek ELx800 Absorbance Reader (BioTek Instruments, Inc., Winooski, VT, USA). The results were analyzed and illustrated using GraphPad Prism (version 8.0.1; GraphPad Software, San Diego, CA, USA) and presented as a mean (M) ± standard deviation (SD). The IC50 values of the compounds were determined using nonlinear regression analysis in GraphPad Prism 10.4.2 [40].
For orientation: Tetrazolium assays rely on reduction of a dye to a coloured formazan, in cell work by metabolically active cells.

In another test the test system is KB3-1 cells. The test can be described thus: MTT assay, 72 h, KB3-1. It is filed as cell-based. The settings on record: Homo sapiens, KB 3-1, mean ± SD. The procedure: as §1, §2, §3
Another test has as its system HCT116 cells. Nature of the test: MTT assay, 72 h, HCT116. The settings on record: Homo sapiens, HCT-116, mean ± SD. It is filed as cell-based. How it is done:
as §1, §2, §3

The test system of a further test is U373 cells. The test can be described thus: MTT assay, 72 h, U373. It is filed as cell-based. The settings on record: Homo sapiens, U373 MG, mean ± SD. The procedure: as §1, §2, §3
A further test deals with 4T1 cells. The test can be described thus: MTT assay, 72 h, 4T1. The conditions noted are these: Mus musculus, mean ± SD. It is filed as cell-based. The procedure:
as §1, §2, §3

The next test concerns NIH3T3 cells. The test can be described thus: MTT assay, 72 h, NIH3T3 (pseudo-normal). It is filed as cell-based. The settings on record: Mus musculus, mean ± SD. How it is done: as §1, §2, §3
The next test concerns MCF-7 cells. Nature of the test: MTT assay, 72 h, MCF-7. The settings on record: Homo sapiens, MCF7, mean ± SD. It is filed as cell-based. How it is done:
as §1, §2
as §3, with “Doxorubicin (Dox, Sigma-Aldrich, USA) was used as a reference drug.” left out

In another test the test system is K562 cells. Nature of the test: MTT assay, 72 h, K562. The conditions noted are these: Homo sapiens, mean ± SD. It is filed as cell-based. How it is done:
as §1, §2, §3

The test system of a further test is HaCaT cells. The test can be described thus: MTT assay, 72 h, HaCaT (pseudo-normal). It is filed as cell-based. The conditions noted are these: Homo sapiens, mean ± SD. How it is done: as §1, §2, §3
Another test concerns cancer cell lines. Nature of the test: MTT assay, panel of cancer cell lines. It is filed as cell-based. The conditions noted are these: 72 h, summary over the cancer cell panel, read-out: IC50 for most cancer lines. How it is done: as §1, §3
The test system of a further test is PPARγ. Also on record: method as in PMID 38920636. The settings on record: cited from earlier work.
Test [1] concerns p53 expression in A549 lung cancer cells. Further details: method as in PMID 38920636. The conditions noted are these: A549 lung cancer cells ref 34; cited from earlier work.
Test [2] concerns p53 expression in normal BJ cells. Also on record: method as in PMID 38920636. The settings on record: normal BJ cells ref 34; cited from earlier work.

Broadly, the IC50 is the concentration at which inhibition is half-maximal.

On to `COc1ccc(N2C(=O)/C(=C/c3ccc(N4CCOCC4)cc3)SC23C(=O)Nc2ccc(Cl)cc23)cc1` (stereo not drawn) [Compound 8, (Z)-5-Chloro-3′-(4-methoxyphenyl)-5′-(4-morpholinobenzylidene)spiro[indoline-3,2′-thiazolidine]-2,4′-dione], for which the IC50 is over 100 µM in the test with MDA-MB-231 cells; 75.9 ± 4.21 µM with KB3-1 cells; over 100 µM with HCT116 cells; over 100 µM in the test with U373 cells; over 100 µM in the test with 4T1 cells; over 100 µM with NIH3T3 cells. The IC50 with MCF-7 cells, in the test with K562 cells, in the test on HaCaT cells and in the test on cancer cell lines was over 100 µM throughout.

In the case of `COc1ccc(N2C(=O)/C(=C/c3ccc(-c4ccccn4)cc3)SC23C(=O)Nc2ccc(Cl)cc23)cc1` (stereo not drawn) [Compound 12, (Z)-5-Chloro-3′-(4-methoxyphenyl)-5′-(4-(pyridin-2-yl)benzylidene)spiro[indoline-3,2′-thiazolidine]-2,4′-dione], the IC50 in the test on MDA-MB-231 cells is over 100 µM; in the test with KB3-1 cells it was 0.97 ± 0.11 µM; in the test with HCT116 cells, over 100 µM; in the test on U373 cells it was over 100 µM; in the test on 4T1 cells it was over 100 µM; in the test with NIH3T3 cells it was over 100 µM. The half-inhibitory concentration (IC50) in the test on MCF-7 cells, in the test on K562 cells and in the test with HaCaT cells was over 100 µM each time.

Take `CCOc1ccc(/C=C2\SC3(C(=O)Nc4ccc(F)cc43)N(Cc3ccccc3)C2=O)cc1` (stereo not drawn) [Compound 19, (Z)-3′-Benzyl-5′-(4-ethoxybenzylidene)-5-fluorospiro[indoline-3,2′-thiazolidine]-2,4′-dione]: the IC50 with MDA-MB-231 cells is 59.3 ± 2.27 µM; in the test with KB3-1 cells, 35 ± 0.48 µM; in the test with HCT116 cells, 62.7 ± 0.76 µM; with U373 cells, 54.89 ± 0.33 µM; in the test with 4T1 cells, 60.5 ± 1.84 µM; in the test with NIH3T3 cells, 94.35 ± 0.87 µM. Besides, the IC50 was 63.9 ± 0.59 µM in the test with MCF-7 cells, over 100 µM with K562 cells and 96.79 ± 0.78 µM in the test with HaCaT cells.

With `CC(C)(C)c1ccc(/C=C2\SC3(C(=O)Nc4ccc(F)cc43)N(Cc3ccccc3)C2=O)cc1` (stereo not drawn) [Compound 18, (Z)-3′-Benzyl-5′-(4-(tert-butyl)benzylidene)-5-fluorospiro[indoline-3,2′-thiazolidine]-2,4′-dione], the IC50 was determined as 6.67 ± 0.15 µM in the test with MDA-MB-231 cells; 7.92 ± 0.65 µM in the test on KB3-1 cells; 8.37 ± 0.51 µM in the test on HCT116 cells; 29.8 ± 0.35 µM in the test on U373 cells; 46.7 ± 1.19 µM in the test with 4T1 cells; 98.39 ± 0.66 µM in the test with NIH3T3 cells. Moreover, the 50% inhibitory concentration (IC50) in the test on MCF-7 cells was 6.99 ± 0.16 µM; with K562 cells, 37.4 ± 0.49 µM; in the test with HaCaT cells, over 100 µM; in the test on cancer cell lines, 6.67 to 8.37 µM.

Take `CC(C)c1ccc(/C=C2\SC3(C(=O)Nc4ccccc43)N(c3ccc(Cl)cc3)C2=O)cc1` (stereo not drawn) [Les-3467]: the PPARγ modulation result in the test on PPARγ was “acts as a PPARγ modulator”. In addition, the p53 expression result in [1] is recorded as “decreasing it”; in test [2], “increasing its levels”.

As to `CCOc1ccc(/C=C2\SC3(C(=O)Nc4ccc(Br)cc43)N(c3ccc(Br)cc3)C2=O)cc1` (stereo not drawn) [Compound 14, (Z)-5-Bromo-3′-(4-bromophenyl)-5′-(4-ethoxybenzylidene)spiro[indoline-3,2′-thiazolidine]-2,4′-dione], the IC50 in the test on MDA-MB-231 cells is 60.2 ± 0.62 µM; with KB3-1 cells, 19.6 ± 0.23 µM; with HCT116 cells, over 100 µM; with U373 cells it was 89.52 ± 0.81 µM; in the test with 4T1 cells it was over 100 µM; in the test with NIH3T3 cells, over 100 µM. Further, the IC50 in the test with MCF-7 cells, in the test with K562 cells, with HaCaT cells and in the test on cancer cell lines was over 100 µM in each case.

Turning to `COc1ccc(N2C(=O)/C(=C/C=C/c3ccccc3)SC23C(=O)Nc2ccc(Cl)cc23)cc1` (stereo not drawn) [Compound 6, (Z)-5-Chloro-3′-(4-methoxyphenyl)-5′-((E)-3-phenylallylidene)spiro[indoline-3,2′-thiazolidine]-2,4′-dione], the IC50 is 55.9 ± 5.67 µM in the test on MDA-MB-231 cells; 45.23 ± 0.36 µM with KB3-1 cells; over 100 µM with HCT116 cells; 69.5 ± 0.9 µM in the test with U373 cells; 68 ± 2.6 µM in the test with 4T1 cells; over 100 µM with NIH3T3 cells. Further, the figures for the IC50 in the test on MCF-7 cells, in the test with K562 cells and with HaCaT cells were 83.3 ± 6.03 µM, over 100 µM and 85.3 ± 1.27 µM, respectively.

On to `CC(C)(C)c1ccc(/C=C2\SC3(C(=O)Nc4ccc(Cl)cc43)N(c3ccc(Cl)cc3)C2=O)cc1` (stereo not drawn) [Compound 15, (Z)-5′-(4-(Tert-butyl)benzylidene)-5-chloro-3′-(4-chlorophenyl)spiro[indoline-3,2′-thiazolidine]-2,4′-dione], for which the IC50 in the test with MDA-MB-231 cells is 30.7 ± 0.45 µM; with KB3-1 cells, 9.77 ± 0.78 µM; in the test with HCT116 cells, over 100 µM; in the test with U373 cells it was 79.3 ± 1.31 µM; in the test with 4T1 cells, 46.6 ± 2.98 µM; with NIH3T3 cells, 90.32 ± 0.68 µM. The results for the half-inhibitory concentration (IC50) in the test with MCF-7 cells, in the test with K562 cells and in the test on HaCaT cells were 77.4 ± 2.9 µM, over 100 µM and over 100 µM, respectively.

For the compound `O=C1CSC2(C(=O)Nc3ccc(Cl)cc32)N1Cc1ccccc1` (stereo not drawn) [Compound 5, 3′-Benzyl-5-chlorospiro[indoline-3,2′-thiazolidine]-2,4′-dione], the IC50 in the test on MDA-MB-231 cells is 68.79 ± 0.62 µM; in the test on KB3-1 cells, 52.1 ± 0.67 µM; in the test with HCT116 cells, 92.8 ± 1.09 µM; in the test on U373 cells, 76.2 ± 0.8 µM; with 4T1 cells, 95.3 ± 1.07 µM; in the test on NIH3T3 cells, over 100 µM. Also, the IC50 with MCF-7 cells is 42.6 ± 1.24 µM; in the test with K562 cells, 95.5 ± 2.64 µM; with HaCaT cells, over 100 µM.
